Where two headings read alike, the source gives them in different places.
What was measured:
COVID-19 virus = test: In-vitro antiviral CPE test in Vero E6 cells, COVID-19 virus; format: cell-based; details: Vero E6 cells, 100 TCID50, CPE after 3-4 days; unit not given (drug concentrations 250-15.62 μg/mL); in µg/mL
Vero cells = test: Drug cytotoxicity assay (MTT) on Vero cells; format: cell-based, African green monkey; details: 72 h, Probit regression
Description: Vero cells were subcultured for 1-2 d to make them into flakes, and trypsinized in the presence of clear boundaries, strong three-dimensional sense and strong refractive power, until needle-like holes appeared on the cell surfaces; after the trypsinization solution was absorbed completely, a few milliliters of culture medium were taken to blow away the cells; the cells were counted, diluted to about 5×10^7/L with a culture medium (DMEM containing 10% fetal bovine serum), and then inoculated in a 96-well culture plate; and the cells grew into a monolayer.
Cytotoxicity test: the drugs were diluted at the concentrations shown in Table 3-1 for cytotoxicity assay.

influenza virus [1] = test: Effect of drug on virus-induced CPE (MTT, antiviral effective rate), influenza virus in Vero cells; format: cell-based
parainfluenza virus [2] = test: Effect of drug on virus-induced CPE (MTT, antiviral effective rate), parainfluenza virus in Vero cells; format: cell-based
influenza virus [3] = format: in vivo, Kunming mice; details: for Hemagglutination titer inhibition rate (%): Day 5; for Hemagglutination titer: lung suspension, Day 5, titer (InX)
parainfluenza virus [4] = format: in vivo, Kunming mice; details: for Hemagglutination titer inhibition rate (%): Day 5; for Hemagglutination titer: lung suspension, Day 5, […]
TNF-α = test: Serum TNF-α in mice infected with influenza virus; format: in vivo, ICR mice; details: Day 5 after influenza virus infection, gavage once a day, x ± s
Procedure: (§1) On the Day 5 after influenza virus infection, that is, Day 6 after administration, after the mice were fasted with solids for 8 h and weighed, venous blood was collected from the plexus ophthalmicus, and blood from mice in each group was preserved, subjected to serum separation, and stored in a refrigerator for later use. According to the instructions of a test kit, various detection and analysis were carried out, and IL-2 and TNF-α concentrations were calculated based on the standard detection and standard curve plotting.

IL-2 = test: Serum IL-2 in mice infected with influenza virus; format: in vivo, ICR mice; details: Day 5 after influenza virus infection, gavage once a day, x ± s
Procedure: as §1

IL-1β = test: RT-qPCR of IL-1β in lung homogenate of mice infected with COVID-19 Delta virus; details: mRNA RT-qPCR, NC = 1.00
MCP-1 = test: RT-qPCR of MCP-1 in lung homogenate of mice infected with COVID-19 Delta virus; details: mRNA RT-qPCR, NC = 1.00
influenza virus FM1 = test: Action links (Groups I-IV: prevention, treatment, direct inactivation), protection of cells against influenza virus; format: cell-based
parainfluenza virus [5] = test: Action links (Groups I-IV: prevention, treatment, direct inactivation), protection of cells against parainfluenza virus; format: cell-based
COVID-19 Delta virus [6] = test: Prophylactic administration, virus titer in lung tissues of mice infected with COVID-19 Delta virus; details: prophylactic gavage 5 days before infection, Day 5 after infection, TCID50 on VERO E6 cells
COVID-19 Delta virus [7] = test: Prophylactic administration, death protection of mice infected with COVID-19 Delta virus; details: prophylactic administration, within 5 days of Delta infection, n = 8; for Mean survival: x ± s
Procedure: hACE2 transgenic C57BL/6 mice were divided (8 mice in each group) into a normal group (NC), a virus infection group (Virus), and drug groups (a COVID-19 Delta virus low-dose (40 mg/kg) group, high-dose (80 mg/kg) group; and a positive control group (Remdesivir 50 mg/kg). Before nasal dripping infection, the drug was administered by gavage 5 days in advance, once a day. After 5 days of continuous gavage, nasal dripping infection was performed, and mice in each COVID-19 virus infection group were infected with COVID-19 Delta virus with 10′ PFU by nasal dripping, except for the normal group who were given PBS by nasal dripping.
After infection, the body weight change was recorded every day, the death of animals within 5 days of infection was recorded, and the mean survival days and mortality rate of 5 days were calculated.

[8] = high-dose group 80 mg/kg gavage 5 days
[9] = low-dose group 40 mg/kg gavage 5 days
[10] = drug and virus mixed and adsorbed for 2 h, then added with cells (direct inactivation)
[11] = drug solution and virus solution added at the same time (direct inactivation)
[12] = virus added first, drug added 1 h after adsorption (treatment)
[13] = virus solution added after 24 h of drug administration (prevention)

**Q.** Which “COVID-19 virus IC50” value (COVID-19 virus) does the source give for COc1ccc([C@H]2OC[C@H]3[C@@H]2CO[C@H]3c2ccc(O[C@@H]3O[C@H](CO)[C@@H](O)[C@H](O)[C@H]3O)c(OC)c2)cc1OC [compound 2] here?
**A.** 63.3

**Q.** And the “Maximum non-toxic concentration (TC0)” value (Vero cells)?
**A.** 0.0067 g/L

**Q.** And the “Median toxic concentration (TC50)” value (Vero cells)?
**A.** 560 µg/mL

**Q.** And the “Effective rate, ER %, Influenza Virus” value (influenza virus [1])?
**A.** 85.94%

**Q.** And the “Effective rate, ER %, Parainfluenza Virus” value (parainfluenza virus [2])?
**A.** 94.43%

**Q.** Which results are given for COc1ccc(C2OCC3C(c4ccc(OC(=O)C(C)c5ccc(CC(C)C)cc5)c(OC)c4)OCC23)cc1OC (stereo not drawn) [compound 6]?
**A.** COVID-19 virus IC50 (COVID-19 virus): 161.8; Maximum non-toxic concentration (TC0) (Vero cells): 0.012 g/L; Median toxic concentration (TC50) (Vero cells): 310 µg/mL; Effective rate, ER %, Influenza Virus (influenza virus [1]): 84.51%; Effective rate, ER %, Parainfluenza Virus (parainfluenza virus [2]): 93.96%

**Q.** Which results are given for CCOC(=O)C1=C[C@@H](OC(CC)CC)[C@H](NC(C)=O)[C@@H](N)C1 [Oseltamivir phosphate, reference compound]?
**A.** Maximum non-toxic concentration (TC0) (Vero cells): 0.29 g/L; Median toxic concentration (TC50) (Vero cells): 831 µg/mL; Effective rate, ER %, Influenza Virus (influenza virus [1]; Vero cells, 100TCID50, drug at experimental concentration of Table 3-2 (about maximum non-toxic), 72 h, MTT): 81.92%; Effective rate, ER %, Parainfluenza Virus (parainfluenza virus [2]): 91.16%; Hemagglutination titer inhibition rate (%) (influenza virus [3]; 19.5 mg/kg): 37.78%; Hemagglutination titer (influenza virus [3]; 19.5 mg/kg): 22.07 ± 0.235; Hemagglutination titer inhibition rate (%) (parainfluenza virus [4]; 19.5 mg/kg): 32.93%; Hemagglutination titer (parainfluenza virus [4]; 19.5 mg/kg): 23.22 ± 0.648; TNF-a expression level (TNF-α; 19.5 mg/kg): 658.91 ± 38.33; IL-2 expression level (IL-2; 19.5 mg/kg): 279.83 ± 23.26

**Q.** What does the source list for COc1cc(O)cc(C2OCC3C(c4ccc(OC5OC(CO)C(O)C(O)C5O)c(OC)c4)OCC23)c1 [Serial No. 1, (7,8,7′,8′)-7,7′-bisepoxy-5′-hydroxy-3,3′hydroxy-bismethoxylignan, 4-O-β-D-glucoside]?
**A.** Hemagglutination titer inhibition rate (%) (influenza virus [3]; 13.0 mg/kg): 43.39%; Hemagglutination titer (influenza virus [3]; 13.0 mg/kg): 20.08 ± 0.381; Hemagglutination titer inhibition rate (%) (parainfluenza virus [4]; 13.0 mg/kg): 37.46%; Hemagglutination titer (parainfluenza virus [4]; 13.0 mg/kg): 21.65 ± 0.238; Expression level of IL-1β in lung homogenate (x ± s) (IL-1β; [8]): 4.80 ± 18.82; Expression level of IL-1β in lung homogenate (x ± s) (IL-1β; [9]): 9.13 ± 8.66; Expression level of MCP-1 in lung homogenate (x ± s) (MCP-1; [8]): 3.26 ± 9.77; Expression level of MCP-1 in lung homogenate (x ± s) (MCP-1; [9]): 6.13 ± 15.12; TNF-a expression level (TNF-α; High-dose group (26.0 mg/kg)): 608.95 ± 34.92; TNF-a expression level (TNF-α; Low-dose group (13.0 mg/kg)): 673.65 ± 26.44; IL-2 expression level (IL-2; High-dose group (26.0 mg/kg)): 259.04 ± 39.98; IL-2 expression level (IL-2; Low-dose group (13.0 mg/kg)): 288.64 ± 25.05; Protection rate (ER %), Group IV (influenza virus FM1; [10]): 100.76%; Protection rate (ER %), Group III (influenza virus FM1; [11]): 100.52%; Protection rate (ER %), Group II (influenza virus FM1; [12]): 75.77%; Protection rate (ER %), Group I (influenza virus FM1; [13]): 75.49%; Protection rate (ER %), Group IV (parainfluenza virus [5]; [10]): 100.82%; Protection rate (ER %), Group III (parainfluenza virus [5]; [11]): 100.49%; Protection rate (ER %), Group II (parainfluenza virus [5]; [12]): 85.95%; Protection rate (ER %), Group I (parainfluenza virus [5]; [13]): 84.39%; Lung virus titer (x ± s, n = 8) (COVID-19 Delta virus [6]; high dose 80 mg/kg): 2.93 ± 0.34; Lung virus titer (x ± s, n = 8) (COVID-19 Delta virus [6]; low dose 40 mg/kg): 3.36 ± 0.28; Death rate (COVID-19 Delta virus [7]; High dose): 12.50%; Survival rate (COVID-19 Delta virus [7]; High dose): 87.50%; Mean survival (COVID-19 Delta virus [7]; High dose): 4.88 ± 0.35 days; Death rate (COVID-19 Delta virus [7]; Low dose): 75.00%; Survival rate (COVID-19 Delta virus [7]; Low dose): 25.00%; Mean survival (COVID-19 Delta virus [7]; Low dose): 4.25 ± 0.46 days

— patent US20250049831A1, “ANTIVIRAL USE OF BISE[…], AND BISEPOXYLIGNAN COMPOSITION AND PREPARATION OF BISE[…]” (priority 2021, published 2025)
